Experimental data published in US8299056B2 (Signal Pharmaceuticals, LLC, priority 2008, dated 2012).

Target: T1, Syk (Homo sapiens, UniProt P43405)
T1 construct: purchased Carna Biosciences
Assay: Syk HTRF assay
Format: biochemical
Conditions: IC50 activity level, read-out: Activity Level
Procedure: Test compounds were prepared at a concentration of 1.5 mM in DMSO followed by 3-fold dilutions in Greiner […] polypropylene plates. A 1:4 dilution of compounds by 8 μL/well transfer from the polypropylene plates to 24 μL/well Assay Buffer in Costar 3710 384 well black plates was then performed. Kinases (13 μL/well) or Assay Buffer only (background controls; 50 mM HEPES pH 7.6, 1 mM DTT, 10 mM MgCl2, 0.01% Triton X100, 0.01% BSA and 0.1 mM EDTA) were added to Costar 3710 384-well black plates for the HTRF assays (Carna Biosciences) and compound was added from the 1:4 dilution plate. Syk start mix (87.5 μM ATP, 80 nM Substrate Peptide (American Peptide Company 332722) was added and the mixture was incubated at room temperature for 1 hour. Syk Stop Solution (120 mM EDTA in dilution buffer) was then added to the Syk HTRF assay plate and incubated at room temperature on a shaker for 2 minutes. Syk Antibody Mix (4.86 μg/mL DyLight 647 Streptavidin (Pierce 21824); 1 μg/mL Lance Eu-Anti-Phosphotyrosine (PerkinElmer AD0069)) was added to the Syk HTRF assay plate and the mixture was further incubated at room temperature for >4 h. Time resolved fluorescence was read in assay plates on a PerkinElmer EnVision. HTRF assays were performed using 320 nm excitation, 60 μs delay, 665 nm and 615 nm emission. Data was expressed by division of 665 nm by 615 nm emissions.

| IC50 [nM] | SMILES |
| --- | --- |
| 1000 to 10000 | c1ccc(Nc2nc3cccc(C4CCNCC4)n3n2)cc1 [Example 512, N-phenyl-5-(piperidin-4-yl)-[1,2,4]triazolo[1,5-a]pyridin-2-amine] |
| 500 to 1000 | NC(=O)c1ccc(Nc2nc3cccc(NC4CCCCC4)n3n2)cc1 [Example 560, 4-(5-(cyclohexylamino)-[1,2,4]triazolo[1,5-a]pyridin-2-ylamino)benzamide] |
| 0.005 to 250 | c1cc(NC2CCCNC2)n2nc(Nc3ccc4cn[nH]c4c3)nc2c1 (stereo in doubt) [Example 464, (S)-N^2-(1H-indazol-6-yl)-N^5-(piperidin-3-yl)-[1,2,4]triazolo[1,5-a]pyridine-2,5-diamine] |
| 0.005 to 250 | FC(F)(F)c1n[nH]c2cc(Nc3nc4cccc(CC5CCOCC5)n4n3)ccc12 [Example 540, 5-((tetrahydro-2H-pyran-4-yl)methyl)-N-(3-(trifluoromethyl)-1H-indazol-6-yl)-[1,2,4]triazolo[1,5-a]pyridin-2-amine] |
| 500 to 1000 | Nc1nccc2ccc(-c3cccc4nc(Nc5ccccc5)nn34)cc12 [Example 489, 7-(2-(phenylamino)-[1,2,4]triazolo[1,5-a]pyridin-5-yl)isoquinolin-1-amine] |
| 250 to 500 | OC(c1cccc2nc(Nc3ccccc3)nn12)C1CCNCC1 (stereo not drawn) [Example 502, (2-(phenylamino)-[1,2,4]triazolo[1,5-a]pyridin-5-yl)(piperidin-4-yl)methanol] |
| 250 to 500 | N[C@H]1CC[C@@H](Nc2cccc3nc(Nc4ccccc4)nn23)CC1 [Example 508, cis-N^5-(4-aminocyclohexyl)-N^2-phenyl-[1,2,4]triazolo[1,5-a]pyridine-2,5-diamine] |
| 1000 to 10000 | CC(CN)Cc1cccc2nc(Nc3ccccc3)nn12 (stereo in doubt) [Example 459, (S)-5-(3-amino-2-methylpropyl)-N-phenyl-[1,2,4]triazolo[1,5-a]pyridin-2-amine] |
| 1000 to 10000 | OC[C@@H](Nc1cccc2nc(Nc3ccc(C(F)(F)F)cc3)nn12)c1ccccc1 [Example 413, (S)-2-phenyl-2-(2-(4-(trifluoromethyl)phenylamino)-[1,2,4]triazolo[1,5-a]pyridin-5-ylamino)ethanol] |
| 500 to 1000 | Cc1cc(-c2cccc3nc(Nc4ccccc4)nn23)no1 [Example 473, 5-(5-methylisoxazol-3-yl)-N-phenyl-[1,2,4]triazolo[1,5-a]pyridin-2-amine] |
| 0.005 to 250 | N[C@H]1CC[C@H](Oc2cccc3nc(Nc4ccc(C(F)(F)F)cc4)nn23)CC1 (stereo in doubt) [Example 422, trans-5-(4-aminocyclohexyloxy)-N-(4-(trifluoromethyl)phenyl)-[1,2,4]triazolo[1,5-a]pyridin-2-amine] |
| 1000 to 10000 | Oc1cc(Nc2cccc3nc(Nc4ccc(C(F)(F)F)cc4)nn23)ccn1 [Example 415, 4-(2-(4-(trifluoromethyl)phenylamino)-[1,2,4]triazolo[1,5-a]pyridin-5-ylamino)pyridin-2-ol] |

Same assay, conditions: activity levels A-D, read-out: Activity Level (IC50 in the Syk HTRF assay)

| IC50 [nM] | SMILES |
| --- | --- |
| 250 to 500 | Cc1cncc(Nc2nc3cccc(N[C@H]4CC[C@@H](O)CC4)n3n2)c1 [Example 390, cis-4-(2-(5-methylpyridin-3-ylamino)-[1,2,4]triazolo[1,5-a]pyridin-5-ylamino)cyclohexanol] |
| 0.005 to 250 | O[C@H]1CC[C@@H](Nc2cccc3nc(Nc4cccc(F)c4)nn23)CC1 [Example 355, cis-4-(2-(3-fluorophenylamino)-[1,2,4]triazolo[1,5-a]pyridin-5-ylamino)cyclohexanol] |
| 0.005 to 250 | Cc1n[nH]c2cc(Nc3nc4cccc(N[C@H]5CC[C@@H](O)CC5)n4n3)ccc12 [Example 351, cis-4-(2-(3-methyl-1H-indazol-6-ylamino)-[1,2,4]triazolo[1,5-a]pyridin-5-ylamino)cyclohexanol] |
| 1000 to 10000 | CNC(=O)c1ccc(Nc2nc3cccc(N[C@H]4CC[C@H](O)CC4)n3n2)cc1 (stereo in doubt) [Example 387, trans-4-(5-(4-hydroxycyclohexylamino)-[1,2,4]triazolo[1,5-a]pyridin-2-ylamino)-N-methylbenzamide] |
| 1000 to 10000 | OCC1CCN(Cc2cccc3nc(Nc4ccc(C(F)(F)F)cc4)nn23)C1 (stereo in doubt) [Example 323, (R)-(1-((2-(4-(trifluoromethyl)phenylamino)-[1,2,4]triazolo[1,5-a]pyridin-5-yl)methyl)pyrrolidin-3-yl)methanol] |
| 1000 to 10000 | O[C@H]1CC[C@@H](Nc2cccc3nc(Nc4ccccc4F)nn23)CC1 [Example 357, cis-4-(2-(2-fluorophenylamino)-[1,2,4]triazolo[1,5-a]pyridin-5-ylamino)cyclohexanol] |
| 0.005 to 250 | Cc1cccc(Nc2nc3cccc(N[C@H]4CC[C@@H](O)CC4)n3n2)c1 [Example 350, cis-4-(2-(m-tolylamino)-[1,2,4]triazolo[1,5-a]pyridin-5-ylamino)cyclohexanol] |
| 1000 to 10000 | C[C@H](NCc1cccc2nc(Nc3ccc(C(F)(F)F)cc3)nn12)C(N)=O [Example 222, (S)-2-((2-(4-(trifluoromethyl)phenylamino)-[1,2,4]triazolo[1,5-a]pyridin-5-yl)methylamino)propanamide] |
| 1000 to 10000 | OC[C@H]1CCCC[C@H]1Nc1cccc2nc(Nc3ccc(C(F)(F)F)cc3)nn12 (stereo in doubt) [Example 356, (1S,2R)-(2-(2-(4-(trifluoromethyl)phenylamino)-[1,2,4]triazolo[1,5-a]pyridin-5-ylamino)cyclohexyl)methanol] |
| 1000 to 10000 | C[C@H](CO)Nc1cccc2nc(Nc3ccc(C(F)(F)F)cc3)nn12 [Example 328, (R)-2-(2-(4-(trifluoromethyl)phenylamino)-[1,2,4]triazolo[1,5-a]pyridin-5-ylamino)propan-1-ol] |

Same assay, conditions: read-out: Activity Level (Syk HTRF assay IC50)

| IC50 [nM] | SMILES |
| --- | --- |
| 250 to 500 | Cc1n[nH]c2ccc(Nc3nc4cccc(N[C@@H]5CCOC5)n4n3)cc12 [compound 115] |
| 0.005 to 250 | O=C1NCc2cc(Nc3nc4cccc(Cc5ccnc(O)c5)n4n3)ccc21 [Example 157, 5-(5-((2-hydroxypyridin-4-yl)methyl)-[1,2,4]triazolo[1,5-a]pyridin-2-ylamino)isoindolin-1-one] |
| 0.005 to 250 | CNC(=O)c1ccc(Nc2nc3cccc(-c4cccc(-c5cnc[nH]5)c4)n3n2)cc1 [compound 7, 4-(5-(3-(1H-imidazol-5-yl)phenyl)-[1,2,4]triazolo[1,5-a]pyridin-2-ylamino)-N-methylbenzamide] |
| 0.005 to 250 | CN1C(=O)Cc2ccc(Nc3nc4cccc(N[C@H]5CC[C@@H](O)CC5)n4n3)cc21 [Example 192, cis-6-(5-(4-hydroxycyclohexylamino)-[1,2,4]triazolo[1,5-a]pyridin-2-ylamino)-1-methylindolin-2-one] |
| 0.005 to 250 | Cn1ncc2ccc(Nc3nc4cccc(-c5cccc(O)c5)n4n3)cc21 [compound 19] |
| 250 to 500 | NCCN1Cc2cc(Nc3nc4cccc(-c5ccccc5)n4n3)ccc2C1=O [compound 45, 2-(2-aminoethyl)-5-(5-phenyl-[1,2,4]triazolo[1,5-a]pyridin-2-ylamino)isoindolin-1-one] |
| 250 to 500 | N#Cc1cccc(-c2cccc3nc(Nc4ccc(C(N)=O)cc4)nn23)c1 [compound 63, 4-(5-(3-cyanophenyl)-[1,2,4]triazolo[1,5-a]pyridin-2-ylamino)benzamide] |
| 0.005 to 250 | Cn1ncc2ccc(Nc3nc4cccc(-c5ccccc5)n4n3)cc21 [compound 54, N-(1-methyl-1H-indazol-6-yl)-5-phenyl-[1,2,4]triazolo[1,5-a]pyridin-2-amine] |
